Test results reported in patent US6514946B1, “Macrolide antibiotics and treatment and prophylaxis of pasteurellosis using the same” (Zaidan Hojin Biseibutsu Kagaku Kenkyu Kai, priority 1999, dated 2003).
≈ marks a conversion by molar mass, not a printed value.

How the values were obtained:
[1] = test system: Past. multocida BSPO302 No. 6; experiment: Minimum inhibition concentration (MIC), agar double dilution method; type: cell-based, Pasteurella multocida; conditions: Past. multocida BSPO302 No. 6, strain from a pig; BHI agar
Experimental: (§1) Test 1; Minimum Inhibition Concentration (MIC)
(§2) MIC was measured, based on the standard method of Japan Society of Chemotherapy, on a BHI agar medium (Brain heart-infusion agar, made by Difco Laboratories Inc.(USA)) with respect to Pasteurella and on a Mueller hinton agar medium (Mueller hinton agar, made by Difco, Laboratories Inc.(USA)) with respect to the other test bacteria in both cases according to the double dilution method.

[2] = test system: Past. multocida BOPO305 M-17; experiment: as above; type: cell-based, Pasteurella multocida; conditions: Past. multocida BOPO305 M-17, strain from a sheep; BHI agar
Experimental: as §1, §2

Ureaplasma = experiment: Bacteria separation test from nasal cavity swab; type: in vivo, cattle
H. somnus = experiment: Bacteria separation test from nasal cavity swab; type: in vivo, cattle
[3] = test system: Past haemolytica BBPO102 N811; experiment: Minimum inhibition concentration (MIC), agar double dilution method; type: cell-based, Pasteurella haemolytica; conditions: Past haemolytica BBPO102 N811, strain from cattle; BHI agar
Experimental: as §1, §2

[4] = test system: Past haemolytica BAPO103 S801; experiment: as above; type: cell-based, Pasteurella haemolytica; conditions: Past haemolytica BAPO103 S801, strain from poultry; BHI agar
Experimental: as §1, §2

[5] = test system: bovine bacterial pneumonia (Mycoplasma, Ureaplasma and Pasteurella); experiment: Clinical test against bovine bacterial pneumonia; type: in vivo, cattle; design: Average clinical score: scale not given here
From the text: Test 5: Clinical Test Against Bovine Bacterial Pneumonia
In this test, each drug was subcutaneously administered to cattle suffering from bacterial pneumonia (infectious diseases with Mycoplasma, Ureaplasma and Pasteurella), respectively, and the clinical effect of P-MT was compared with those of tilmicosin and C-9.
Tests are made on 17 case of one to two-month-old Holstein cattle (weight 56 to 101 kg) suffering from bacterial pneumonia caused by single or mixed infection of Pasteurella, Mycoplasma, Ureaplasma and Haemophilus (6 animals for each of P-MT and C-9 and 5 animals for tilmicosin). The drug was subcutaneously administered to the animals once a day in an amount of 10 mg/kg.
Three calves showing a similar degree of symptoms at the start of the test were arranged in one group. Each subject of the same group was respectively tested with one of the above three compounds. Ailing calves were successively grouped when being available.
Clinical findings, based on the daily observation from the time of the administration through the 5th day of the trial, were scored on each item according to the criteria in the table below. The clinical efficacy of the compounds was judged on the 5th day.
As to judgment based on the clinical symptoms, cases which could be judged among each group were classified into remarkably effective (85 to 100), effective (70 to under 85), a little effective (50 to under 70) and infective (under 50) according to the following improvement rate by clinical scores, and after summing up, the following effective rate was calculated, the difference in the effective rate among the groups was determined using a statistical method, and thus effectivity was judged. [formula]

[6] = test system: P. haemolytica 63-39 intraperitoneally infected mice; experiment: Antiinfective test on infected mice
S. aureus FDA209P = experiment: Minimum inhibition concentration (MIC), agar double dilution method; type: cell-based, Staphylococcus aureus; conditions: Mueller hinton agar
Experimental: as §1, §2

M. bovirhinis = experiment: Bacteria separation test from nasal cavity swab; type: in vivo, cattle
P. haemolytica 63-39 = experiment: Sensitivity (MIC), agar plate dilution method; conditions: P. haemolytica 63-39; agar plate dilution, 10^6 CFU/ml
P. multocida = experiment: Bacteria separation test from nasal cavity swab; type: in vivo, cattle
M. bovis = type: in vivo, cattle; conditions: nasal cavity swab, before administration (baseline)
E. coli K-12 R-5 = experiment: Minimum inhibition concentration (MIC), agar double dilution method; type: cell-based, Escherichia coli; conditions: Mueller hinton agar
Experimental: as §1, §2

[7] = test system: S. aureus Smith (virulent strain); experiment: microbe, parasite or virus in culture; type: cell-based, Staphylococcus aureus; conditions: S. aureus Smith (virulent strain); Mueller hinton agar
Experimental: as §1, §2

[8] = test system: Salmonella enteritidis 1891; experiment: Minimum inhibition concentration (MIC), agar double dilution method; type: cell-based; conditions: Mueller hinton agar
Experimental: as §1, §2

Escherichia coli NIHJ = experiment: as above; type: cell-based; conditions: Mueller hinton agar
Experimental: as §1, §2

[9] = test system: Enterobacter aerogenes ATCC13048; experiment: as above; type: cell-based; conditions: Mueller hinton agar
Experimental: as §1, §2

[10] = test system: Micrococcus luteus PCI1001; experiment: as above; type: cell-based; conditions: Mueller hinton agar
Experimental: as §1, §2

[11] = test system: Shigella dysenteriae JS11910; experiment: as above; type: cell-based; conditions: Shigella dysenteriae JS11910; Mueller hinton agar
Experimental: as §1, §2

Serratia marcescens = experiment: as above; type: cell-based; conditions: Mueller hinton agar
Experimental: as §1, §2

[12] = test system: Klebsiella pneumoniae PCI602; experiment: as above; type: cell-based; conditions: Mueller hinton agar
Experimental: as §1, §2

[13] = test system: Pasteurella haemolytica BBPO101 N791; experiment: as above; type: cell-based; conditions: Pasteurella haemolytica BBPO101 N791, strain from cattle; BHI agar
Experimental: as §1, §2

[14] = test system: Bacillus subtilis NRRL B-558; experiment: as above; type: cell-based; conditions: Bacillus subtilis NRRL B-558; Mueller hinton agar
Experimental: as §1, §2

[15] = test system: Staphylococcus aureus 193; experiment: as above; type: cell-based; conditions: Mueller hinton agar
Experimental: as §1, §2

P. haemolytica = experiment: Bacteria separation test from nasal cavity swab; type: in vivo, cattle
[16] = before administration (baseline)
[17] = probit method from surviving numbers after 7 days, subcutaneous

**Q.** Which results are given for CC[C@H]1OC(=O)C[C@@H](O)[C@H](C)[C@@H](O[C@@H]2O[C@H](C)C(O)C(N(C)C)C2O)[C@@H](CC=O)C[C@@H](C)C(=O)/C=C/C(C)=C/[C@@H]1CN1CCCCC1 (some centres unmarked)?
**A.** MIC [1]: 0.39 µg/mL (≈ 0.587 µM); MIC [2]: 0.39 µg/mL (≈ 0.587 µM); Separation rate (%) at completion (number of animal) (Ureaplasma; at completion): 33 (2/6) % (number of animal); Separation rate (%) before administration (number of animal) (Ureaplasma; [16]): 100 (6/6) % (number of animal); Separation rate (%) at completion (number of animal) (H. somnus; at completion): 0 (0/6) % (number of animal); Separation rate (%) before administration (number of animal) (H. somnus; [16]): 0 (0/6) % (number of animal); MIC [3]: 0.78 µg/mL (≈ 1.17 µM); MIC [4]: 0.78 µg/mL (≈ 1.17 µM); Average clinical score ([5]; 1 day after completion of administration, cattle, 10 mg/kg subcutaneous): 3.3; Average clinical score ([5]; 2 days after completion of administration): 2.5; Average clinical score ([5]; 3 days after completion of administration): 2.0; Average clinical score ([5]; 4 days after completion of administration): 1.8; Effective rate (%) in clinical effect ([5]; (remarkably effective + effective case number)/test case number × 100): 50%; Average symptomatic improvement rate (%) ([5]; (score before − score after administration)/score before × 100): 75.9%; Average clinical score ([5]; at administration (baseline), cattle, 10 mg/kg subcutaneous): 7.5; A little effective (%) (case number) ([5]; improvement rate 50 to under 70): 50 (3) % (case number); Effective (%) (case number) ([5]; improvement rate 70 to under 85): 33 (2) % (case number); Remarkably effective (%) (case number) ([5]; improvement rate 85 to 100): 17 (1) % (case number); Ineffective (%) (case number) ([5]; improvement rate under 50): 0 (0) % (case number); Surviving number after 7 days/test number ([6]; dose 1 mg/kg subcutaneous one hour after infection): 0/10; Surviving number after 7 days/test number ([6]; dose 5 mg/kg subcutaneous one hour after infection): 1/10; Surviving number after 7 days/test number ([6]; dose 10 mg/kg subcutaneous one hour after infection): 3/10; Surviving number after 7 days/test number ([6]; dose 20 mg/kg subcutaneous one hour after infection): 10/10; Surviving number after 7 days/test number ([6]; dose 30 mg/kg subcutaneous one hour after infection): 10/10; ED50 (95% confidence limit) [6, 17]: 10.3 mg/kg (7.7-13.4); ED90 [6, 17]: 18.3 mg/kg; MIC (S. aureus FDA209P): 0.20 µg/mL (≈ 0.301 µM); Separation rate (%) at completion (number of animal) (M. bovirhinis; at completion): 33 (2/6) % (number of animal); Separation rate (%) before administration (number of animal) (M. bovirhinis; [16]): 67 (4/6) % (number of animal); MIC (P. haemolytica 63-39): 1.56 µg/mL (≈ 2.35 µM); Separation rate (%) at completion (number of animal) (P. multocida; at completion): 50 (3/6) % (number of animal); Separation rate (%) before administration (number of animal) (P. multocida; [16]): 100 (6/6) % (number of animal); Separation rate (%) before administration (number of animal) (M. bovis): 33 (2/6) % (number of animal); MIC (E. coli K-12 R-5): >100 µg/mL; MIC [7]: 0.39 µg/mL (≈ 0.587 µM); MIC [8]: 0.78 µg/mL (≈ 1.17 µM); MIC (Escherichia coli NIHJ): 0.78 µg/mL (≈ 1.17 µM); MIC [9]: 6.25 µg/mL (≈ 9.4 µM); MIC [10]: 0.10 µg/mL (≈ 0.15 µM); MIC [11]: 3.13 µg/mL (≈ 4.71 µM); MIC (Serratia marcescens): 6.25 µg/mL (≈ 9.4 µM); MIC [12]: 0.78 µg/mL (≈ 1.17 µM); MIC [13]: 0.78 µg/mL (≈ 1.17 µM); MIC [14]: 0.39 µg/mL (≈ 0.587 µM); MIC [15]: 0.20 µg/mL (≈ 0.301 µM); Separation rate (%) at completion (number of animal) (P. haemolytica; at completion): 17 (1/6) % (number of animal); Separation rate (%) before administration (number of animal) (P. haemolytica; [16]): 17 (1/6) % (number of animal)
